The structures appear in SMILES notation.

Common to all, as to experiment: Herbicidal activity, foliar application of single compounds (Test Examples 1 to 5)
What all share (assay type): in vivo
What all share (design): key: 0 means the state where the plants are as sound as before the application of the active compound; 1, 2, 3 and 4 mean varying degrees of the enfeebled state of the plants between 0 and 5; 1, 2, 3 and 4 mean varying degrees of the enfeebled state of the plants between 0 and 5; 1, 2, 3 and 4 mean varying degrees of the enfeebled state of the plants between 0 and 5; 1, 2, 3 and 4 mean varying degrees of the enfeebled state of the plants between 0 and 5; 5 is the state where the plants are withered or killed by application of the active compound
Common to all, as to settings: 3 weeks after application

Test [1] relates to Corn; Zea mays. On the procedure: (§1) In these examples, all parts means parts by weight, unless otherwise noted. The herbicidal activity was evaluated on a scale of 6 degrees. In other words, 0 means the state where the plants are as sound as before the application of the active compound, while 5 is the state where the plants are withered or killed by application of the active compound, and 1, 2, 3 and 4 mean varying degrees of the enfeebled state of the plants between 0 and 5.
(§2) The diphenyl ethers shown in Table 2 were added to 5000 parts of a mixture of acetone and water (1 : 1 by volume), and 2.6 parts of a nonionic surfactant (Sorpol 2680, tradename) was added to form a solution, so that the ether becomes the prescribed amount in each solution.
(§3) Seeds of plants were sown in the soil, cultivated for 2 to 3 weeks, after germination, then the plants were used for the tests.
(§4) The prepared solution was applied to these plants at the prescribed rate of application in total, then the plants were continuously cultivated for 3 weeks without applying the solution.
(§5) The alphabetical symbols in Tables 2 and 3 represent the following plants, respectively: a: Digitaria adscendens b: Setaria viridis c: Sorghum halepense d: Chenopodium album var. centrorubrum e: Amaranthus mangostanus f: Astragalus sinicus g: Abutilon theophrosti h: Solanum nigrum i: Xanthium strumarium j: Soybean; Glycine max k: Corn; Zea mays Table 2

Test [2] deals with Abutilon theophrosti. On the procedure: as §1, §2, §3, §4, §5
The subject of test [3] is Xanthium strumarium. On the procedure: as §1, §2, §3, §4, §5
Test [4] concerns Sorghum halepense. The method, then: as §1, §2, §3, §4, §5
For test [5], the system named is Soybean; Glycine max. The method, then:
as §1, §2, §3, §4, §5

Test [6] deals with Digitaria adscendens. The method, then: as §1, §2, §3, §4, §5
Test [7] relates to Chenopodium album var. centrorubrum. On the procedure:
as §1, §2, §3, §4, §5

For test [8], the system named is Amaranthus mangostanus. On the procedure: as §1, §2, §3, §4, §5
Test [9] relates to Setaria viridis. On the procedure: as §1, §2, §3, §4, §5
For test [10], the system named is Astragalus sinicus. The method, then: as §1, §2, §3, §4, §5
For test [11], the system named is Solanum nigrum. The method, then: as §1, §2, §3, §4, §5
Where [12] appears, read: Rate of Application 0.008 kg/ha.
The mark [13] stands for this setting: Rate of Application 0.031 kg/ha.
Where [14] appears, read: Rate of Application 0.016 kg/ha.

Consider `CCOC(=O)C(C)Oc1cc(Oc2ncc(C(F)(F)F)cc2Cl)ccc1C#N` (stereo not drawn) [(37), Ethyl α-[2-cyano-5-(3-chloro-5-trifluoromethyl-2-pyridyloxy)phenoxy]propionate], for which the figures for the “herbicidal activity, Plants k” value in [1] (setting [12]) and in [1] (setting [13]) were 2 and 3, respectively. Further, the “herbicidal activity, Plants g” value in [2] (setting [12]) and in test [2] (setting [13]) was 5 in each case. Also, the “herbicidal activity, Plants i” value in [3] (setting [12]) is 4; in [3] (setting [13]) it was 5. The “herbicidal activity, Plants c” value came to 3 in [4] (setting [12]) and 5 in test [4] (setting [13]). For the same compound, the “herbicidal activity, Plants j” value in test [5] (setting [12]) was found to be 3; in [5] (setting [13]), 4. Further, the “herbicidal activity, Plants a” value is reported as 3 in [6] (setting [12]) and 4 in [6] (setting [13]). In addition, the “herbicidal activity, Plants d” value in test [7] (setting [12]) was determined as 3; in test [7] (setting [13]), 5. Moreover, the “herbicidal activity, Plants e” value in test [8] (setting [12]) and in test [8] (setting [13]) was 5 in each case. Also, the “herbicidal activity, Plants b” value in test [9] (setting [12]) was found to be 3; in test [9] (setting [13]), 4. Besides, the “herbicidal activity, Plants f” value in test [10] (setting [12]) is 3; in [10] (setting [13]), 4. The “herbicidal activity, Plants h” value in test [11] (setting [12]) and in [11] (setting [13]) was 4 in each case.

As to `COC(=O)C(C)Oc1cc(Oc2ccc(C(F)(F)F)cc2Cl)ccc1C#N` (racemic) [Racemic (1), racemic methyl α-[2-cyano-5-(2-chloro-4-trifluoromethylphenoxy)phenoxy]propionate, reference compound], the results for the “herbicidal activity, Plants k” value in test [1] (setting [14]) and in [1] (setting [13]) were 4 and 5, respectively. The “herbicidal activity, Plants g” value in test [2] (setting [14]) and in test [2] (setting [13]) was 5 throughout. Further, the “herbicidal activity, Plants i” value in [3] (setting [14]) and in [3] (setting [13]) was 5 throughout. The figures for the “herbicidal activity, Plants c” value in test [4] (setting [14]) and in test [4] (setting [13]) were 2 and 5, respectively. Also, the “herbicidal activity, Plants j” value in test [5] (setting [14]) and in [5] (setting [13]) was 4 in each case. The “herbicidal activity, Plants a” value in test [6] (setting [14]) was determined as 3; in test [6] (setting [13]), 4. For the same compound, the “herbicidal activity, Plants d” value in test [7] (setting [14]) and in [7] (setting [13]) was 5 throughout. Moreover, the “herbicidal activity, Plants e” value in test [8] (setting [14]) and in test [8] (setting [13]) was 5 throughout. Also, the “herbicidal activity, Plants b” value in [9] (setting [14]) is given as 2; in [9] (setting [13]), 3. Also, the “herbicidal activity, Plants f” value in test [10] (setting [14]) and in [10] (setting [13]) was 5 throughout. For the same compound, the “herbicidal activity, Plants h” value in test [11] (setting [14]) and in test [11] (setting [13]) was 5 throughout.

For the compound `CCOC(=O)C(C)Oc1cc(Oc2ccc(C(F)(F)F)cc2Cl)ccc1C#N` (stereo not drawn) [(2), ethyl α-[2-cyano-5-(2-chloro-4-trifluoromethylphenoxy)phenoxy]propionate], the “herbicidal activity, Plants k” value in test [1] (setting [12]) is 4; in test [1] (setting [13]), 5. The “herbicidal activity, Plants g” value in test [2] (setting [12]) and in test [2] (setting [13]) was 5 throughout. For the same compound, the “herbicidal activity, Plants i” value in test [3] (setting [12]) and in [3] (setting [13]) was 5 each time. Besides, the “herbicidal activity, Plants c” value in [4] (setting [12]) is reported as 3; in [4] (setting [13]) it was 5. Also, the “herbicidal activity, Plants j” value in [5] (setting [12]) is on record as 4; in [5] (setting [13]), 5. Further, the “herbicidal activity, Plants a” value worked out at 3 in test [6] (setting [12]) and 4 in [6] (setting [13]). For the same compound, the “herbicidal activity, Plants d” value in test [7] (setting [12]) and in test [7] (setting [13]) was 5 throughout. The figures for the “herbicidal activity, Plants e” value in test [8] (setting [12]) and in test [8] (setting [13]) were 3 and 5, respectively. Also, the “herbicidal activity, Plants b” value in test [9] (setting [12]) came out at 3; in test [9] (setting [13]), 4. The entries for the “herbicidal activity, Plants f” value in [10] (setting [12]) and in test [10] (setting [13]) were 4 and 5, respectively. In addition, the “herbicidal activity, Plants h” value in test [11] (setting [12]) and in test [11] (setting [13]) was 5 in each case.

`CCCCOC(=O)C(C)Oc1cc(Oc2ccc(C(F)(F)F)cc2Cl)ccc1C#N` (stereo not drawn) [(3), n-Butyl α-[2-cyano-5-(2-chloro-4-trifluoromethylphenoxy)phenoxy]propionate]: the “herbicidal activity, Plants k” value amounted to 2 in [1] (setting [12]) and 5 in [1] (setting [13]). The “herbicidal activity, Plants g” value in test [2] (setting [12]) and in test [2] (setting [13]) was 5 each time. In addition, the “herbicidal activity, Plants i” value is on record as 4 in test [3] (setting [12]) and 5 in test [3] (setting [13]). Also, the “herbicidal activity, Plants c” value in test [4] (setting [12]) worked out at 2; in [4] (setting [13]), 5. For the same compound, the results for the “herbicidal activity, Plants j” value in [5] (setting [12]) and in test [5] (setting [13]) were 3 and 5, respectively. For the same compound, the “herbicidal activity, Plants a” value in test [6] (setting [12]) is reported as 3; in test [6] (setting [13]) it was 5. The “herbicidal activity, Plants d” value in [7] (setting [12]) and in [7] (setting [13]) was 5 each time. Besides, the “herbicidal activity, Plants e” value in test [8] (setting [12]) and in test [8] (setting [13]) was 5 throughout. Moreover, the “herbicidal activity, Plants b” value is listed as 3 in [9] (setting [12]) and 4 in test [9] (setting [13]). Also, the “herbicidal activity, Plants f” value is 4 in test [10] (setting [12]) and 5 in test [10] (setting [13]). The “herbicidal activity, Plants h” value in test [11] (setting [12]) and in [11] (setting [13]) was 5 throughout.

Source of the values: EP0533925A1, “OPTICAL ISOMER OF R-FORM OF DIPHENYL ETHER DERIVATIVE AND HERBICIDE CONTAINING THE SAME AS ACTIVE INGREDIENT” (TEIJIN LIMITED, priority 1990, dated 1991).
